These results are taken from patent US20070203183A1, “Diaryl piperidines as CB1 modulators” (Schering Corporation, priority 2006, published 2007).

This assay deals with T1, cannabinoid CB1 (Homo sapiens, UniProt P21554).
T1 construct: purchased
Put plainly: Competition binding assay for cannabinoid CB1 affinity (3H-CP55,940 displacement, membranes). Here is the method:
Method for Evaluating Cannabinoid CB1 and CB2 Affinity
Non-specific binding was defined in the presence of 10 μM CP55,940. For saturation studies, concentrations of ^3H-CP55,940 ranging from 0.1-5 nM were incubated with membranes in the presence and absence of 10 μM CP55,940. Assays were terminated after incubation for 1½ hours by rapid filtration onto 0.3% polyethylenamine treated GF/C filterplates using a BRANDEL cell harvester. The plates were dried and MICROSCINT scintillation cocktail was added, after which the bound radioactivity was quantified using a TOPCOUNT scintillation counter.
The dissociation constant (Kd) of ^3H-CP55,940 at the CB1 and CB2 receptor were determined by plotting specific binding at each concentration of radioligand, and analysis by non-linear regression. For competition studies, the concentration of each drug that inhibited 50 percent of ^3H-CP55,940 binding (IC50) was determined by non-linear regression analysis of the radioligand displacement curves.

The mark [1] stands for this setting: competition with 0.5 nM 3H-CP55,940, Ki by Cheng-Prusoff, approximate values, receptor subtype not given, read-out: Ki values.

Like-named read-outs stand apart in the source and are kept apart here.

T1 sequence (P21554 whole entry): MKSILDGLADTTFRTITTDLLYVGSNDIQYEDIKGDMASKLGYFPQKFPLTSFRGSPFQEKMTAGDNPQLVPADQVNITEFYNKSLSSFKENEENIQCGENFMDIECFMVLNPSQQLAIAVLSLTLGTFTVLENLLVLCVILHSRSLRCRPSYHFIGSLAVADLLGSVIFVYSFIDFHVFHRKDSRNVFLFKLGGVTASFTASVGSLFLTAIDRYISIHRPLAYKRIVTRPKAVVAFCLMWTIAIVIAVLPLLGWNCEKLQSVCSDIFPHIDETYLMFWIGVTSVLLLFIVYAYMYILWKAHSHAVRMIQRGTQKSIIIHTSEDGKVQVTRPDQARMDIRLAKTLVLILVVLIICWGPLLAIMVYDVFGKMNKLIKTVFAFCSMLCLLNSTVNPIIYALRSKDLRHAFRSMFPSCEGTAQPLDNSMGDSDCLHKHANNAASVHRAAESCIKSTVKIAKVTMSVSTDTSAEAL

By Ki is commonly meant a measure of affinity in units of concentration, obtained from inhibition or displacement. For `O=S(=O)(NC[C@@H]1CC[C@@H](c2ccc(Cl)cc2Cl)N(c2ccc(Cl)cc2)C1)c1ccccc1` [Example 86], the Ki under setting [1] is around 9 nM. `N#Cc1ccc(C(=O)NC[C@@H]2CC[C@@H](c3ccc(Cl)cc3Cl)N(c3ccc(Cl)cc3)C2)cc1` [Example 91]: the Ki was around 4 nM.

Consider `O=S(=O)(NC[C@@H]1CC[C@@H](c2ccc(Cl)cc2Cl)N(c2ccc(Cl)cc2)C1)c1cc(F)ccc1F` [Example 112], for which the Ki under setting [1] was around 2 nM. In the case of `O=S(=O)(NC[C@@H]1CC[C@@H](c2ccc(Cl)cc2Cl)N(c2ccc(Cl)cc2)C1)c1cccc(Cl)c1` [Example 120], the inhibition constant Ki under setting [1] is around 2 nM.
